Experimental data: patent publication US9694019B2, “Compositions and methods for treating bone diseases and broken bones” (BRIGHAM YOUNG UNIVERSITY, priority 2011, dated 2017)
Residues, ends and D or L forms follow the SMILES beside them. *: point of attachment. Cbz = O=C(OCc1ccccc1)*; OtBu = CC(C)(C)O*

Tested on: primary human MSC cells
Test: BMP regulation: gene expression array (SABiosciences PAHS-026) in primary human MSC cells
Assay type: cell-based
Details: hMSC, 8 hours
Experimental: SABisosciences custom array plates (Cat#PAHS-026) were used to measure BMP expression. These array plates are validated for efficiency when used at recommended conditions and reagents. On day 1, primary human MSC cells were plated at 200,000 cell/well using 6-well plates with 10% FBS, Penicillin and Streptomycin 10 mL per Liter, in recommended media. Only early passages of cells were used.
On day 2, cells were treated with compounds dissolved in DMSO diluted 1:1000 or more to avoid solvent effects. A non-treated negative control group was evaluated (FIG. 1, “Control Group”) along with a positive control group containing PS1 at 0.1 μM (FIG. 1, “Group 1”). Final testing concentration for CSA-90 was 5.0 μM (FIG. 1, “Group 2”), 2.5 μM (FIG. 1, “Group 3”), and 1.2 μM (FIG. 1, “Group 4”). Treatment lasted 8 hours, followed by RNA isolation using a QIAGEN Miniprep Kit. RNA was measured at 260/280 nm using NanoDrop2000 and normalized to 250 ng. cDNA preparation was done using QIAGEN First Strand kit.

[1] = PS1 0.1 μM, v. untreated control

With `CC[C@H](C)[C@H](NC(=O)OCc1ccccc1)C(=O)N[C@@H](CCC(=O)OC(C)(C)C)C(=O)N[C@@H](C)C(=O)N[C@H](C=O)CC(C)C` [PS1, reference compound] (Cbz-IE(OtBu)AL-aldehyde) the “up-regulation of BMP-2 mRNA compared to the control” value (0.1 μM) was 3 fold, the “Fold Up-Regulation ACTB (Actin, beta)” value [1] was −1.4183 fold and the “Fold Up-Regulation AHSG (Alpha-2-HS-glycoprotein)” value [1] was −1.3295 fold. The “Fold Up-Regulation ALPL (Alkaline phosphatase, liver/bone/kidney)” value [1] was −1.4723 fold, the “Fold Up-Regulation AMBN (Ameloblastin)” value [1] was −1.9272 fold and the “Fold Up-Regulation AMELY (Amelogenin, Y-linked)” value [1] was −1.8864 fold. For the same molecule, the “Fold Up-Regulation ANXA5 (Annexin A5)” value [1] was 1.1236 fold, the “Fold Up-Regulation BGLAP (Bone gamma-carboxyglutamate (gla) protein)” value [1] was −1.3879 fold and the “Fold Up-Regulation BGN (Biglycan)” value [1] was −1.1323 fold. For the same molecule, the “Fold Up-Regulation BMP-1 (Bone morphogenetic protein 1)” value [1] was −1.1214 fold, the “Fold Up-Regulation BMP-2 (Bone morphogenetic protein 2)” value [1] was 3.0816 fold and the “Fold Up-Regulation BMP-3 (Bone morphogenetic protein 3)” value [1] was −1.1038 fold. For the same molecule, the “Fold Up-Regulation BMP-4 (Bone morphogenetic protein 4)” value [1] was −2.2148 fold, the “Fold Up-Regulation BMP-5 (Bone morphogenetic protein 5)” value [1] was 1.124 fold and the “Fold Up-Regulation BMP-6 (Bone morphogenetic protein 6)” value [1] was 2.642 fold. For the same molecule, the “Fold Up-Regulation CALCR (CALCITONIN RECEPTOR)” value [1] was 1.124 fold, the “Fold Up-Regulation CD36 (CD36 molecule, thrombospondin receptor)” value [1] was −1.0202 fold and the “Fold Up-Regulation CDH11 (Cadherin 11, type 2, OB-cadherin)” value [1] was −2.2309 fold. The “Fold Up-Regulation COL1A1 (Collagen, type I, alpha 1)” value [1] was −1.1935 fold, the “Fold Up-Regulation COL1A2 (Collagen, type I, alpha 2)” value [1] was −1.0689 fold and the “Fold Up-Regulation COL2A1 (Collagen, type II, alpha 1)” value [1] was −1.4242 fold. The “Fold Up-Regulation COL3A1 (Collagen, type III, alpha 1)” value [1] was −1.0806 fold, the “Fold Up-Regulation COL4A3 (Collagen, type IV, alpha 3)” value [1] was −1.0619 fold and the “Fold Up-Regulation COL5A1 (Collagen, type V, alpha 1)” value [1] was 1.0927 fold. For the same molecule, the “Fold Up-Regulation COL10A1 (Collagen, type X, alpha 1)” value [1] was 1.5421 fold, the “Fold Up-Regulation COL11A1 (Collagen, type XI, alpha 1)” value [1] was −1.4875 fold and the “Fold Up-Regulation COL12A1 (Collagen, type XII, alpha 1)” value [1] was 1.0767 fold. The “Fold Up-Regulation COL14A1 (Collagen, type XIV, alpha 1)” value [1] was −1.5279 fold, the “Fold Up-Regulation COL15A1 (Collagen, type XV, alpha 1)” value [1] was 1.2144 fold and the “Fold Up-Regulation COMP (Cartilage oligomeric matrix protein)” value [1] was 1.2648 fold. The “Fold Up-Regulation CSF2 (Colony stimulating factor 2)” value [1] was 6.205 fold, the “Fold Up-Regulation CSF3 (Colony stimulating factor 3)” value [1] was −2.4364 fold and the “Fold Up-Regulation CTSK (Cathepsin K)” value [1] was −1.2679 fold. The “Fold Up-Regulation DMP1 (Dentin matrix acidic phosphoprotein 1)” value [1] was 1.124 fold, the “Fold Up-Regulation DSPP (Dentin sialophosphoprotein)” value [1] was 1.124 fold and the “Fold Up-Regulation EGF (Epidermal growth factor)” value [1] was −1.2529 fold. For the same molecule, the “Fold Up-Regulation EGFR (Epidermal growth factor receptor)” value [1] was −1.8532 fold, the “Fold Up-Regulation ENAM (Enamelin)” value [1] was 1.124 fold and the “Fold Up-Regulation FGF1 (Fibroblast growth factor 1)” value [1] was −1.4948 fold. The “Fold Up-Regulation FGF2 (Fibroblast growth factor 2)” value [1] was 1.3957 fold, the “Fold Up-Regulation FGF3 (Fibroblast growth factor 3)” value [1] was −1.3257 fold and the “Fold Up-Regulation FGFR1 (Fibroblast growth factor receptor 1)” value [1] was −1.0999 fold. For the same molecule, the “Fold Up-Regulation FGFR2 (Fibroblast growth factor receptor 2)” value [1] was −1.2644 fold, the “Fold Up-Regulation FLT1 (Fms-related tyrosine kinase 1)” value [1] was −2.7821 fold and the “Fold Up-Regulation FN1 (Fibronectin 1)” value [1] was 1.099 fold. The “Fold Up-Regulation GAPDH (Glyceraldehyde-3-phosphate dehydrogenase)” value [1] was 1.161 fold, the “Fold Up-Regulation GDF10 (Growth differentiation factor 10)” value [1] was 1.124 fold and the “Fold Up-Regulation ICAM1 (Intercellular adhesion molecule 1)” value [1] was 1.5053 fold. For the same molecule, the “Fold Up-Regulation IGF1 (Insulin-like growth factor 1)” value [1] was 1.5067 fold, the “Fold Up-Regulation IGF1R (Insulin-like growth factor 1 receptor)” value [1] was −1.0699 fold and the “Fold Up-Regulation IGF2 (Insulin-like growth factor 2)” value [1] was −1.2388 fold. The “Fold Up-Regulation ITGA1 (Integrin, alpha 1)” value [1] was 1.325 fold, the “Fold Up-Regulation ITGA2 (Integrin, alpha 2)” value [1] was −1.0945 fold and the “Fold Up-Regulation ITGA3 (Integrin, alpha 3)” value [1] was −1.8917 fold. For the same molecule, the “Fold Up-Regulation ITGAM (Integrin, alpha M)” value [1] was 1.3319 fold, the “Fold Up-Regulation ITGB1 (Integrin, beta 1)” value [1] was 1.1614 fold and the “Fold Up-Regulation MMP2 (Matrix metallopeptidase 2)” value [1] was −1.1194 fold. The “Fold Up-Regulation MMP8 (Matrix metallopeptidase 8)” value [1] was 3.7453 fold, the “Fold Up-Regulation MMP9 (Matrix metallopeptidase 9)” value [1] was −1.2449 fold and the “Fold Up-Regulation MMP10 (Matrix metallopeptidase 10)” value [1] was 1.3516 fold. For the same molecule, the “Fold Up-Regulation MSX1 (Msh homeobox 1)” value [1] was 6.2916 fold, the “Fold Up-Regulation NFKB1 (Nuclear factor of kappa light polypeptide gene enhancer in B-cells 1)” value [1] was −1.1038 fold and the “Fold Up-Regulation PDGFA (Platelet-derived growth factor alpha polypeptide)” value [1] was 1.0421 fold. For the same molecule, the “Fold Up-Regulation PHEX (Phosphate regulating endopeptidase homolog, Xlinked)” value [1] was 1.9871 fold, the “Fold Up-Regulation RUNX2 (Runt-related transcription factor 2)” value [1] was −3.542 fold and the “Fold Up-Regulation SCARB1 (Scavenger receptor class B, member 1)” value [1] was 1.1791 fold. The “Fold Up-Regulation SERPIN H1 (Serpin peptidase inhibitor, clade H, member 1)” value [1] was 1.4764 fold, the “Fold Up-Regulation SMAD1 (SMAD family member 1)” value [1] was −1.2813 fold and the “Fold Up-Regulation SMAD2 (SMAD family member 2)” value [1] was 1.0462 fold. For the same molecule, the “Fold Up-Regulation SMAD3 (SMAD family member 3)” value [1] was −2.771 fold, the “Fold Up-Regulation SMAD4 (SMAD family member 4)” value [1] was 1.3022 fold and the “Fold Up-Regulation STATH (Statherin)” value [1] was −2.2674 fold. For the same molecule, the “Fold Up-Regulation TFIP11 (Tuftelin interacting protein 11)” value [1] was 1.1041 fold, the “Fold Up-Regulation TGFB1 (Transforming growth factor, beta 1)” value [1] was −1.2644 fold and the “Fold Up-Regulation TGFB2 (Transforming growth factor, beta 2)” value [1] was 1.0081 fold. The “Fold Up-Regulation TGFB3 (Transforming growth factor, beta 3)” value [1] was 2.2234 fold, the “Fold Up-Regulation TGFBR1 (Transforming growth factor, beta receptor 1)” value [1] was 2.0059 fold and the “Fold Up-Regulation TGFBR2 (Transforming growth factor, beta receptor II)” value [1] was −2.3752 fold. The “Fold Up-Regulation TNF (Tumor necrosis factor)” value [1] was 1.8055 fold, the “Fold Up-Regulation TUFT1 (Tuftelin 1)” value [1] was 1.4326 fold and the “Fold Up-Regulation TWIST1 (Twist homolog 1)” value [1] was −2.197 fold. For the same molecule, the “Fold Up-Regulation VCAM1 (Vascular cell adhesion molecule 1)” value [1] was −2.406 fold, the “Fold Up-Regulation VDR (Vitamin D (1,25-dihydroxyvitamin D3) receptor)” value [1] was −1.5248 fold and the “Fold Up-Regulation VEGFA (Vascular endothelial growth factor A)” value [1] was −1.0162 fold. The “Fold Up-Regulation VEGFB (Vascular endothelial growth factor B)” value [1] was −1.1191 fold.
